Test results from patent US20080194585A1, “Fungicidal Pyrazine Derivatives” (priority 2005, published 2008).
Like-named read-outs stand apart in the source and are kept apart here.

Columns and labels:
Plasmopara viticola = test: Test D: grape downy mildew, spray after inoculation of grape seedlings; type: in vivo; conditions: Plasmopara viticola, 168 h, read-out: Test D disease control rating
Text: Upon removal, disease ratings were made. […] A dash (-) indicates no test results.

Phytophthora infestans = test: whole plant or invertebrate; type: in vivo; conditions: Phytophthora infestans, in Solanum lycopersicum, topical, 144 h, read-out: Test F disease control rating
Septoria tritici = test: Test J: wheat leaf blotch, preventive spray on wheat seedlings; type: in vivo; conditions: Zymoseptoria tritici, 528 h, read-out: Test J disease control rating
Text: A dash (-) indicates no test results.

fusarium graminearium = test: Test I: wheat head scab, preventive spray on wheat seedlings; conditions: Fusarium, in Triticum aestivum, topical, 192 h
Experimental: (the causal agent of wheat head scab) and incubated in a saturated atmosphere at 20° C. for 72 h, and then moved to a growth chamber at 22° C. for 5 days, after which disease ratings were made.

[1] = system: Puccinia recondita f. sp. tritici; test: Test K: wheat leaf rust, preventive spray on wheat seedlings; conditions: Puccinia recondita, in Triticum aestivum, 192 h, read-out: Test K disease control rating
Botrytis cinerea = test: Test E: tomato botrytis, preventive spray on tomato seedlings; conditions: Botrytis cinerea, in Solanum lycopersicum, topical, 72 h, read-out: Test E disease control rating
Septoria nodorum = test: Test H: wheat glum blotch, preventive spray on wheat seedlings; conditions: Parastagonospora nodorum, in Triticum aestivum, topical, 168 h
Experimental: (the causal agent of wheat glum blotch) and incubated in a saturated atmosphere at 20° C. for 48 h, and then moved to a growth chamber at 22° C. for 5 days, after which disease ratings were made.

[2] = system: Erysiphe graminis f. sp. tritici; test: Test L: wheat powdery mildew, preventive spray on wheat seedlings; conditions: Blumeria graminis, in Triticum aestivum, 168 h
Sclerotinia sclerotiorum = test: Test C: cucumber white mold, preventive spray on cucumber seedlings; conditions: Sclerotinia sclerotiorum, in Cucumis sativus, 168 h
Pythium aphanidermatum = test: Test A: bluegrass pythium blight, preventive spray on bluegrass seedlings; conditions: Pythium aphanidermatum, 120 h, read-out: Test A disease control rating
Rhizoctonia oryzae = test: Test G: turf brown patch, preventive spray on creeping bent grass seedlings; conditions: Waitea circinata, in Agrostis stolonifera, topical, 144 h
Experimental: (the causal agent of turf brown patch) and incubated in a saturated atmosphere at 27° C. for 24 h, and then moved to a growth chamber at 27° C. for 5 days, after which disease ratings were made.

[3] = system: Colletotrichum orbiculare; test: Test B: cucumber Colletotrichum anthracnose, preventive spray on cucumber seedlings; conditions: Colletotrichum orbiculare, in Cucumis sativus, 144 h
[4] = 40 ppm (marked *), 100 = 100% disease control, 0 = no control
[5] = 200 ppm, 100 = 100% disease control, 0 = no control relative to controls

CC[C@H](C)Cn1c(-c2c(F)cc(F)cc2F)c(Cl)nc(-n2cccn2)c1=O [Compound 155, 5-Chloro-1-[(2S)-2-methylbutyl)-3-(1H-pyrazol-1-yl)-6-(2,4,6-trifluorophenyl)-2(1H)-pyrazinone]
pest or weed control at 40 ppm (Plasmopara viticola; 40 ppm (*)): 47%
pest or weed control at 40 ppm (Phytophthora infestans): 0%
pest or weed control at 40 ppm (Septoria tritici; 40 ppm (*)): 100%
melting point: 112 to 113 °C
pest or weed control at 40 ppm (fusarium graminearium; read-out: Test I disease control rating, 40 ppm (*)): 0%
pest or weed control at 40 ppm [1]: 100%
pest or weed control at 40 ppm (Botrytis cinerea): 100%
pest or weed control at 40 ppm (Septoria nodorum; read-out: Test H disease control rating, 40 ppm (*)): 100%
pest or weed control at 40 ppm ([2]; read-out: Test L disease control rating, 40 ppm (*)): 100%
pest or weed control at 40 ppm (Sclerotinia sclerotiorum; read-out: Test C disease control rating, 40 ppm (*)): 99%
pest or weed control at 40 ppm (Pythium aphanidermatum): 0%
pest or weed control at 40 ppm (Rhizoctonia oryzae; read-out: Test G disease control rating, 40 ppm (*)): 100%
pest or weed control at 40 ppm ([3]; read-out: Test B disease control rating, 40 ppm (*)): 100%

COc1ccc(Cn2c(-c3c(F)cccc3F)c(Cl)nc(-n3cccn3)c2=O)cc1 [Compound 271, 5-Chloro-6-(2,6-difluorophenyl)-1-[(4-methoxyphenyl)methyl]-3-(1H-pyrazol-1-yl)-2(1H)-pyrazinone]
pest or weed control at 40 ppm (Plasmopara viticola; [4]): 0%
pest or weed control at 40 ppm (Phytophthora infestans): 0%
pest or weed control at 40 ppm (Septoria tritici; [4]): 0%
melting point: 235 to 236 °C
pest or weed control at 40 ppm (fusarium graminearium; read-out: Test I disease control rating, 40 ppm (marked *), 100 = 100% disease control, 0 = no control): 0%
pest or weed control at 40 ppm [1]: 32%
pest or weed control at 40 ppm (Botrytis cinerea): 0%
pest or weed control at 40 ppm (Septoria nodorum; read-out: Test H disease control rating, 40 ppm (marked *), 100 = 100% disease control, 0 = no control): 0%
pest or weed control at 40 ppm ([2]; read-out: Test L disease control rating, 40 ppm (marked *), 100 = 100% disease control, 0 = no control): 0%
pest or weed control at 40 ppm (Sclerotinia sclerotiorum; read-out: Test C disease control rating, 40 ppm (marked *), 100 = 100% disease control, 0 = no control): 0%
pest or weed control at 40 ppm (Pythium aphanidermatum): 0%
pest or weed control at 40 ppm (Rhizoctonia oryzae; read-out: Test G disease control rating, 40 ppm (marked *), 100 = 100% disease control, 0 = no control): 0%
pest or weed control at 40 ppm ([3]; read-out: Test B disease control rating, 40 ppm (marked *), 100 = 100% disease control, 0 = no control): 0%

CCC(C)Cn1c(-c2ccc(F)cc2F)c(C)nc(C#N)c1=N (centres unmarked) [Compound 426, 5-(2,4-Difluorophenyl)-3,4-dihydro-3-imino-6-methyl-4-(2-methylbutyl)pyrazinecarbonitrile]
pest or weed control at 200 ppm (Plasmopara viticola; [5]): 0%
pest or weed control at 200 ppm (Phytophthora infestans): 0%
pest or weed control at 200 ppm (Septoria tritici; [5]): 0%
melting point: 73 to 77 °C
pest or weed control at 200 ppm (fusarium graminearium; read-out: Test I disease control rating, 200 ppm, 100 = 100% disease control, 0 = no control relative to controls): 0%
pest or weed control at 200 ppm [1]: 0%
pest or weed control at 200 ppm (Botrytis cinerea): 0%
pest or weed control at 200 ppm (Septoria nodorum; read-out: Test H disease control rating, 200 ppm, 100 = 100% disease control, 0 = no control relative to controls): 0%
pest or weed control at 200 ppm ([2]; read-out: Test L disease control rating, 200 ppm, 100 = 100% disease control, 0 = no control relative to controls): 80%
pest or weed control at 200 ppm (Pythium aphanidermatum): 82%
pest or weed control at 200 ppm (Rhizoctonia oryzae; read-out: Test G disease control rating, 200 ppm, 100 = 100% disease control, 0 = no control relative to controls): 0%
pest or weed control at 200 ppm ([3]; read-out: Test B disease control rating, 200 ppm, 100 = 100% disease control, 0 = no control relative to controls): 0%
